Laboratory results reported in patent US20220144812A1, “QUINOLINE DERIVATIVES AND THEIR USE FOR THE TREATMENT OF CANCER” (Epizyme, Inc., priority 2019, published 2022).
Where two headings read alike, the source gives them in different places.

What was measured:
[1] = molecular target: T1, CREBBP (1084-1701) (Homo sapiens, UniProt Q92793); assay: Biochemical assay for CREBBP (1084-1701), SAMDI; details: SAMDI, read-out: CREBBP Biochemistry IC50
T1 construct: measured in the following biochemical assay using CREBBP (1084-1701); purchased
T1 sequence (Q92793 1084-1701): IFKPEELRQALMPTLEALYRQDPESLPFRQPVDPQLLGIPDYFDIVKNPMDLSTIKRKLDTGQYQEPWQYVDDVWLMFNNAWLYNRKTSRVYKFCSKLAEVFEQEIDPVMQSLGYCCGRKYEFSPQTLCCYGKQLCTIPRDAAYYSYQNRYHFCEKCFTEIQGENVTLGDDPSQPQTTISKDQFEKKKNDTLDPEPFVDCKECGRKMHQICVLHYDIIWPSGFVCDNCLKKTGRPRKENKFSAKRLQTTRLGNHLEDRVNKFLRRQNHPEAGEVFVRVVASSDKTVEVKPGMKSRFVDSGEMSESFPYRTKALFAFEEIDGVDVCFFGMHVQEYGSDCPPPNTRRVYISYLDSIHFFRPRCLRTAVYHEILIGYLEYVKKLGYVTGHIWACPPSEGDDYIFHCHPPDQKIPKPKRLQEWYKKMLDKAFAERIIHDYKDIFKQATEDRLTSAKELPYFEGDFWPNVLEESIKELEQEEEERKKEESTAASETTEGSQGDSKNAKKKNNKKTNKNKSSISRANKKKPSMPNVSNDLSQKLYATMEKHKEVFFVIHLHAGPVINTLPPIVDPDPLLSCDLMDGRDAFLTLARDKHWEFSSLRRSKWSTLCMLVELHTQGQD
Text: The following example describes materials and methods relating to a biochemical assay for CREBBP (1084-1701). IC50 values (micromolar (μM)) are summarized in Table 1, Table 2, and Table 3 under the column labeled: “CREBBP Biochemistry IC50 (micromolar).”
MATERIALS: Reagents 1M Tris pH 8.0, Tween 20 10%, DTT, bovine serum gelatin (BSG) 2%, Peptide #233 (biotin-H3 11-25, K14R, K23R), Acetyl-CoA, CREBBP (1084-1701), formic acid (100%), and sodium bicarbonate were commercially available.
METHODS: The effect of compounds was measured in the following biochemical assay using CREBBP (1084-1701). Enzyme mix 30 μL per well was added using a Multi-drop to wells of prepared Compound Stock plate. The enzyme was incubated in the Compound Stock plate for 30 minutes at room temperature. Substrate mix, 20 μL per well, was added to Compound Stock plate using a Multi-drop. The plate was covered and incubate 30 minutes at room temperature. The reaction was stopped with addition of 5 μL per well of 5% formic acid using a Multi-drop. The plate was Incubated for 30 minutes at room temperature. The reaction mixture was neutralized with addition of 5 μL per well of 10% sodium bicarbonate using a Multi-drop. The plate was Incubated for 35 minutes at room temperature. The reaction mixture was Transferred 2.5 μL per well to a SAMDI biochip. The plate was Incubated for 60 minutes at room temperature. The samples were washed, dried, and matrix applied to SAMDI biochip. The SAMDI biochip was then read on the mass spectrometer.

[2] = test system: H3K18Ac in HB-CLS-2 cells; assay: H3K18AC in-cell western (ICW) assay; assay type: cell-based; details: H3K18Ac in-cell western, read-out: CREBBP ICW IC50
Text: The following example describes methods and materials relating to an H3K18AC in-cell western assay. IC50 values (micromolar (μM)) are summarized in Table 1, Table 2, and Table 3 under the column labeled: “CREBBP ICW IC50 (micromolar).”
MATERIALS: HB-CLS-2 cell line, DMEM: Ham's F12 medium (1:1 mixture), penicillin-streptomycin, heat inactivated fetal bovine serum, D-PBS, Odyssey blocking buffer, 800CW goat anti-rabbit IgG (H+L) antibody, Licor Odyssey CLx Infrared Scanner, H3K18Ac rabbit monoclonal antibody. DRAQS fluorescent probe solution (5 mM), and 100% methanol were commercially available. HB-CLS-2 adherent cells were maintained in complete growth medium (DMEM: Ham's F12 supplemented with 10% v/v heat inactivated fetal bovine serum) and cultured at 37° C. under 5% CO2.
METHOD: Cell Treatment, ICW for detection of H3K18Ac and DNA content. HB-CLS-2 cells were seeded in assay medium (DMEM: Ham's F12 supplemented with 10% v/v heat inactivated fetal bovine serum and 1% Penicillin/Streptomycin) at a concentration of 80,000 cells per mL in a Poly-D-Lysine coated 384-well culture plates at 50 μL per well. Plates were incubated at room temperature for 30 minutes and then incubated at 37° C., 5% CO2 for additional 16-24 hours. Compounds and DMSO normalization were then added directly to the plates using a D300 Digital Dispenser and returned to the incubator at 37° C., 5% CO2 for 2 hrs. After the incubation, the contents of the plates were discarded into the appropriate waste stream and blotted on laboratory tissue to remove residual liquid. 90 μL per well of 100% ice cold methanol was added to the plates and incubated at room temperature for 15 minutes. Then methanol was then discarded into the appropriate waste stream and the plates again blotted on laboratory tissue to remove residual liquid. Plates were transferred to a Biotek 405 plate washer and washed 3 times with 100 μL per well of wash buffer (1X PBS containing 0.1% Triton X-100 (v/v)). Next, 50 μL per well of Odyssey blocking buffer with 0.1% Tween 20 (v/v) was added to each plate and incubated for 1 hour at room temperature. Blocking buffer was removed and 20 μL of primary antibody were added (α-H3K18Ac diluted 1:800 in Odyssey buffer with 0.1% Tween 20 (v/v)) and plates were incubated overnight (16 hours) at 4° C. Plates were washed 5 times with 100 μL per well of wash buffer. Next 20 μL per well of secondary antibody was added (1:400 800CW goat anti-rabbit IgG (H+L) antibody, 1:2000 DRAQ5 in Odyssey buffer with 0.1% Tween 20 (v/v)) and incubated for 1 hour at room temperature. The plates were washed 3 times with 100 μL per well wash buffer then 3 times with 100 μL per well of water. Plates were allowed to dry at room temperature then imaged on the Licor Odyssey CLx machine which measured integrated intensity at 700 nm and 800 nm wavelengths. Both 700 and 800 channels were scanned.

| SMILES | IC50 [1] | IC50 ([2]; HB-CLS-2 cells) | further results |
| --- | --- | --- | --- |
| CCn1ncc(CN(C)C(=O)c2cc(-c3cccc(Cl)c3)nc3ccc(OC)cc23)c1C [Compound 273] | 19 µM | – | – |
| CCn1ncc(CN(C)C(=O)c2nc(-c3cnn(CCCNC(=O)OC(C)(C)C)c3)nc3ccc(Cl)cc23)c1C [Compound 189] | – | – | IC50 [2]: 20 µM |
| CCn1ncc(CN(C)C(=O)c2cc(-c3cccc(Cl)c3)nc3ccc(N)cc23)c1C [Compound 311] | 18 µM | – | – |
| CCc1nc(-c2cc(C(=O)N(C)Cc3cnn(CC)c3C)c3cc(Cl)ccc3n2)ccc1NCCNC [Compound 425] | – | 0.15 µM | – |
| CCn1ncc(CN(C)C(=O)c2nc(-c3ccc(OCCCN(C)C(=O)OC(C)(C)C)c(OC)c3)nc3ccc(Cl)cc23)c1C [Compound 355] | 3.8 µM | – | – |
| CCn1ncc(CN(C)C(=O)c2cc(-c3cccc(Cl)c3)nc3ccccc23)c1C [Compound 352] | 41 µM | – | – |
| CCn1ncc(CN(C)C(=O)c2cc(-c3cccc(C)c3)nc3ccccc23)c1C [Compound 353] | 84 µM | – | – |
| CCn1ncc(CN(C)C(=O)c2nc(-c3ccc(OCCN(C)C(=O)OC(C)(C)C)c(F)c3)nc3ccc(Cl)cc23)c1C [Compound 251] | – | 20 µM | – |
| CCn1ncc(CN(C)C(=O)c2cc(-c3ccccc3Cl)nc3cc(F)ccc23)c1C [Compound 253] | 90 µM | – | – |
| CCn1ncc(CN(C)C(=O)c2cc(-c3cncc(Cl)c3)nc3ccc(Cl)cc23)c1C [Compound 341] | 12 µM | – | – |
| CCn1ncc(CN(C)C(=O)c2cc(-c3cccc(C#N)c3)nc3ccc(Cl)cc23)c1C [Compound 332] | 27 µM | – | – |
| CCn1ncc(CN(C)C(=O)c2nc(-c3ccc(OCCNC(=O)OC(C)(C)C)c(F)c3)nc3ccc(Cl)cc23)c1C [Compound 252] | – | 20 µM | – |
| CCOc1ccc2nc(-c3cccc(Cl)c3)cc(C(=O)N(C)Cc3cnn(CC)c3C)c2c1 [Compound 319] | 120 µM | – | – |
| CCn1ncc(CN(C)C(=O)c2nc(N3CCCNCC3)nc3ccc(Cl)cc23)c1C [Compound 187] | – | – | IC50 [2]: 20 µM |
| CCn1ncc(CN(C)C(=O)c2cc(-c3ccccc3OC)nc3ccccc23)c1C [Compound 351] | 32 µM | – | – |
| Cc1c(CN(C)C(=O)c2cc(-c3cccc(Cl)c3)nc3ccccc23)cnn1C(C)C [Compound 304] | 43 µM | – | – |
| CCc1ccc2nc(-c3cccc(Cl)c3)cc(C(=O)N(C)Cc3cnn(CC)c3C)c2c1 [Compound 328] | 0.29 µM | – | – |
| CCn1ncc(CN(C)C(=O)c2cc(-c3ccccc3Cl)nc3c(C)cccc23)c1C [Compound 340] | 40 µM | – | – |
| CCn1ncc(CN(C)C(=O)c2cc(-c3ccccc3)nc3ccccc23)c1C [Compound 343] | 176 µM | – | – |
| CCn1ncc(CN(C)C(=O)c2cc(-c3cccnc3)nc3ccc(Cl)cc23)c1C [Compound 325] | 55 µM | – | – |

| SMILES | IC50 [1] | IC50 ([2]; HB-CLS-2 cells) | further results |
| --- | --- | --- | --- |
| CCn1ncc(CN(C)C(=O)c2cc(-c3cccnc3)nc3ccc(Cl)cc23)c1C [Compound 364] | 34 µM | – | – |
| CCn1ncc(CN(C)C(=O)c2cc(-c3ccccc3Cl)nc3c(Cl)cccc23)c1C [Compound 269] | 26 µM | – | – |
| CCn1ncc(CN(C)C(=O)c2nc(N3CCN(C(C)=O)CC3)nc3ccc(Cl)cc23)c1C [Compound 195] | – | – | IC50 [2]: 20 µM |
| CCn1ncc(CN(C)C(=O)c2cc(-c3ccc(OCCNC(C)=O)c(C)n3)nc3ccc(Cl)cc23)c1C [Compound 431] | – | 0.84 µM | – |
| CCn1nc(C)c(CN(C)C(=O)c2nc(-c3ccccc3Cl)nc3ccc(Cl)cc23)c1C [Compound 201] | – | 20 µM | – |
| CCn1ncc(CN(C)C(=O)c2cc(-c3ccc(OCCCNC)c(C)n3)nc3ccc(Cl)cc23)c1C [Compound 430] | – | 0.69 µM | – |
| CCn1nnc(CN(C)C(=O)c2cc(-c3ccccc3Cl)nc3ccc(Cl)cc23)c1C [Compound 291] | 89 µM | – | – |
| CCn1ncc(CN(C)C(=O)c2cc(-c3ccc(N(C)CCN(C)C)c(C)n3)nc3ccc(Cl)cc23)c1C [Compound 420] | – | 0.74 µM | – |
| CCn1ncc(CN(C)C(=O)c2cc(N3CCN(C(C)=O)CC3)nc3ccc(Cl)cc23)c1C [Compound 244] | – | 20 µM | – |
| CCn1ncc(CN(C)C(=O)c2cc(-c3ccc(NCCNC)c(C)n3)nc3ccc(C)cc23)c1C [Compound 429] | – | 0.16 µM | – |
| CCn1ncc(CN(C)C(=O)c2nc(-c3cnn(CCCN(C)C(=O)OC(C)(C)C)c3)nc3ccc(Cl)cc23)c1C [Compound 188] | – | – | IC50 [2]: 20 µM |
| CCn1ncc(CN(C)C(=O)c2cc(-c3cn(C)c(C)n3)nc3cc(Cl)ccc23)c1C [Compound 203] | – | 20 µM | – |
| CCn1ncc(CN(C)C(=O)c2nc(-c3ccc(OC4CCNCC4)c(OC)c3)nc3ccc(Cl)cc23)c1C [Compound 428] | – | 1.4 µM | – |
| CCn1ncc(CN(C)C(=O)c2cc(-c3ccc(NCCNC)c(C)n3)nc3ccc(COC)cc23)c1C [Compound 427] | – | 0.19 µM | – |
| CCn1ncc(CN(C)C(=O)c2cc(N3CCNCC3)nc3ccc(Cl)cc23)c1C [Compound 246] | – | 20 µM | – |
| CCn1ncc(CN(C)C(=O)c2cc(-c3cnc(NCCNC)cn3)nc3ccc(Cl)cc23)c1C [Compound 424] | – | 0.4 µM | – |
| CCn1ncc(CN(C)C(=O)c2nc(-c3cccc(Cl)c3)nc3cc(N4CCOCC4)ccc23)c1C [Compound 191] | – | – | IC50 [2]: 20 µM |
| CCn1ncc(CN(C)C(=O)c2cc(N3CCN(C)CC3)nc3ccc(Cl)cc23)c1C [Compound 214] | – | 20 µM | – |
| CCn1ncc(CN(C)C(=O)c2cc(N3CCN(C(=O)OC(C)(C)C)CC3)nc3ccc(Cl)cc23)c1C [Compound 205] | – | 20 µM | – |

More lines, main results first:

| IC50 [1] | IC50 ([2]; HB-CLS-2 cells) | SMILES | further results |
| --- | --- | --- | --- |
| – | 20 µM | CCn1ncc(CN(C)C(=O)c2nc(-c3cnn(CCC(O)CNC)c3)nc3ccc(Cl)cc23)c1C (stereo not drawn) [Compound 223] | – |
| – | 0.26 µM | CCn1ncc(CN(C)C(=O)c2nc(-c3cc(C(=O)NC4CC4)n(C)n3)nc3ccc(Cl)cc23)c1C [Compound 421] | – |
| 1.8 µM | – | CCn1ncc(CN(C)C(=O)c2nc(-c3cccc(Cl)c3)nc3ccc(F)cc23)c1C [Compound 309] | – |
| 29 µM | – | CCn1ncc(CN(C)C(=O)c2nc(-c3cnn(C)c3)nc3ccc(Cl)cc23)c1C [Compound 339] | – |
| – | 20 µM | CCn1ncc(CN(C)C(=O)c2nc(-c3cnn(CC4CCCN4)c3)nc3ccc(Cl)cc23)c1C (stereo not drawn) [Compound 204] | – |
| 21 µM | – | CCn1ncc(CN(C)C(=O)c2nc(-c3ncccc3OC)nc3ccc(Cl)cc23)c1C [Compound 348] | – |
| – | 20 µM | CCn1ncc(CN(C)C(=O)c2nc(-c3ccc4ccn(C(=O)OC(C)(C)C)c4c3)nc3ccc(Cl)cc23)c1C [Compound 234] | – |
| – | 0.6 µM | CCn1ncc(CN(C)C(=O)c2nc(-c3cc(N)c4nc[nH]c4c3)nc3ccc(Cl)cc23)c1C [Compound 422] | – |
| – | 20 µM | CCn1ncc(CN(C)C(=O)c2nc(-c3cnn(CCN(C)C(=O)OC(C)(C)C)c3)nc3ccc(Cl)cc23)c1C [Compound 197] | – |
| – | 20 µM | CCn1ncc(CN(C)C(=O)c2nc(-c3cnn(CCC(O)CN4CCCC4)c3)nc3ccc(Cl)cc23)c1C (stereo not drawn) [Compound 249] | – |
| – | 0.53 µM | CCc1cc(CNC)cc(-c2nc(C(=O)N(C)Cc3cnn(CC)c3C)c3cc(Cl)ccc3n2)c1 [Compound 423] | – |
| – | 20 µM | CCn1ncc(CN(C)C(=O)c2nc(C3CCCN3)nc3ccc(Cl)cc23)c1C (stereo not drawn) [Compound 207] | – |
